Results: patent publication US20150284347A1, “NEW BENZENE SULFONAMIDE THIAZOLE COMPOUNDS” (INSERM (INSTITUT NATIONAL DE LA SANTÉ ET DE LA RECHERCHE …, priority 2012, published 2015)

How the values were obtained:
A375 melanoma cells = assay: A375 melanoma xenograft tumor development in nude mice; assay type: in vivo; conditions: 0.7 mg/mouse/day over 24 days, athymic nude mice
Procedure: To assess a potential antineoplastic effect of (HA15) and (SR50) in vivo, A375 melanoma cells (2.5×10^6) were injected subcutaneously in 6-week-old female athymic nude mice and treated 5 days later by injection of vehicle (labrafil) or different compounds such as PLX4032, (HA15) and (SR50) (0.7 mg/mouse/day) over a period of 24 days. Inhibitory effect is expressed as the tumor volume (mm^3) on day 8, 11, 15, 18, 22 and 24.
Athymic BALB/C nu/nu mice (Harlan) were used. The animals were 6 weeks old and weighed between 20 and 25 g. The mice were housed in the animal's C3M in a 12 h/12 h cycle. The animals received water and food ad libitum. Mice were first acclimated for one week and then injected with A375 cells (2.5 million cells in 200 μl of PBS) subcutaneously into the right and left sides. Treatment was started eight days after injection of cancer cells (when tumors were visible). The various compounds were diluted in a mixture of Labrafil (90%) (Gattefosse), Tween 80 (1%) and N,N-Dimethylacetamide (9%). Five groups of six mice treated every day intraperitoneally with 0.7 mg/day of PLX4032, SR44 (HA15), SR47 (HA32), SR50 (JG25) or with the mixture of Labrafil in control were defined. Three times a week the tumor size was measured using a caliper. […]

[1] = system: melanoma cells resistant to dabrafenib; assay: Trypan blue cell viability, melanoma cells resistant to dabrafenib; assay type: cell-based, human; conditions: patient melanoma cells resistant to dabrafenib, FIG. 5
Procedure: The measure of cell viability was performed in the same way as for FIG. 1. Results are expressed as percentage of cells alive relatively to the number of living cells in the presence of DMSO, which is a negative control
Cells were seeded in 6-well plates (60000 cells/well), depleted and incubated with compounds for the times indicated. Then cells were detached in the presence of 2000 of HyQTase (Thermo) and 2 ml of RPMI 1640 Glutamax (Gibco) was added to the cell solution. 100 of this solution was stained for 1 minute with 100 of 0.4% trypan blue before counting with a Malassez chamber.
Melanoma cells resistant to dabrafenib wee prepared from patients treated and presented a resistance to dabrafenib. dabrafenib, [HA15], [SR47] and [SR50] were tested on these resistant cells, in order to determine their activity on cell viability of resistant melanoma cells, as illustrated in FIG. 5.

phosphorylation = assay: Western blot of MAP vemurafenib activation on A375 melanoma cells; assay type: cell-based; conditions: FIG. 6
Procedure: FIG. 6: Western Blots showing the effect of compounds of the invention and dabrafenib on MAP Vemurafenib activation on A375 melanoma cells.
Proteins were extracted in Fisher buffer containing TRIS-HCl pH 7.5 50 mM, NaCl 15 mM, Triton X-100 1% and proteases and phosphatases inhibitors. Briefly, cell lysates (30 μg) were separated by SDS-PAGE, transferred onto a PVDF membrane (Millipore, Molsheim, France) and then exposed to the appropriate antibodies. Proteins were visualized with the ECL system from Amersham (Arlington, Heights, Ill., USA). The western blots shown are representative of at least 3 independent experiments.
Indeed, dabrafenib as PLX4032 inhibits activation of B-Raf on B-Raf V600E mutated melanoma. The inhibition of B-Raf leads to inhibition of MAP Vemurafenib cascade and could be visualized through inhibition of MAP vemurafenib phosphorylation.

normal human melanocytes = assay: Trypan blue cell viability, normal melanocytes; assay type: cell-based; conditions: 10 μM, FIG. 2
Procedure: Primary cell cultures of human normal melanocytes were prepared from human foreskin. In order to determine the effect of compound HA15 on cell viability of melanocytes and fibroblasts, 10 μM of ciglitazone or 10 μM of HA15 were added to the cell samples. The measure of cell viability was performed in the same way as for FIG. 1. Results are expressed as the percentage of living cells relatively to the number of living cells in the presence of DMSO, as for FIG. 1. Normal human melanocytes (NHM) prepared from foreskins of newborns were grown under 5% CO2 at 37° C. in MCDB 153 (Sigma) supplemented with 2% FCS, bovine pituitary extract (10 μg/ml), PMA (8 nM), bFGF (ing/nil), insulin (5 μg/ml), hydrocortisone (0.5 μg/ml), forskolin (10 μM), gentamicin (20 μg/ml), penicillin/streptomycin/amphotericin B (100 U/ml) (Invitrogen). Cells were seeded in 6-well plates (60000 cells/well), depleted and incubated with compounds for the times indicated. Then cells were detached in the presence of 2000 of […] (Thermo) and 2 ml of RPMI 1640 Glutamax (Gibco) was added to the cell solution. 100 of this solution was stained for 1 minute with 100 of 0.4% trypan blue before counting with a Malassez chamber. The effect of compound HA15 on cell viability of melanocytes and fibroblasts was studied, as illustrated by FIG. 2. Primary cell cultures of human normal melanocytes were prepared from human foreskin. […]

normal human fibroblasts = assay: Trypan blue cell viability, normal fibroblasts; assay type: cell-based; conditions: 10 μM, FIG. 2
Procedure: Primary cell cultures of human normal melanocytes were prepared from human foreskin. In order to determine the effect of compound HA15 on cell viability of melanocytes and fibroblasts, 10 μM of ciglitazone or 10 μM of HA15 were added to the cell samples. The measure of cell viability was performed in the same way as for FIG. 1. Results are expressed as the percentage of living cells relatively to the number of living cells in the presence of DMSO, as for FIG. 1. Normal human fibroblasts prepared from foreskins of newborns were grown under 5% CO2 at 37° C. in DMEM medium supplemented with 10% FCS and penicillin/streptomycin (100 U/ml/[…]). Cells were seeded in 6-well plates (60000 cells/well), depleted and incubated with compounds for the times indicated. Then cells were detached in the presence of 2000 of […] (Thermo) and 2 ml of RPMI 1640 Glutamax (Gibco) was added to the cell solution. 100 of this solution was stained for 1 minute with 100 of 0.4% trypan blue before counting with a Malassez chamber. The effect of compound HA15 on cell viability of melanocytes and fibroblasts was studied, as illustrated by FIG. 2. Primary cell cultures of human normal melanocytes were prepared from human foreskin. In order to determine the effect of compound HA15 on cell viability of melanocytes and fibroblasts, 10 μM of ciglitazone or 10 μM of HA15 were added to the cell samples. […]

## CC(=O)Nc1nc(-c2cccc(NS(=O)(=O)c3ccc(C)cc3)c2)cs1 [SR50, N-(4-(3-(4-methylphenylsulfonamido)phenyl)thiazol-2-yl)acetamide]
A375 melanoma cells
  ability of cells to develop visible tumors: markedly attenuated
[1]
  cell viability of resistant melanoma cells: inhibit cell viability of resistant melanoma cells

## CC(C)(C)c1nc(-c2cccc(NS(=O)(=O)c3c(F)cccc3F)c2F)c(-c2ccnc(N)n2)s1 [dabrafenib]
[1]
  cell viability of resistant melanoma cells: contrary to dabrafenib inhibit cell viability of resistant melanoma cells
phosphorylation
  MAP vemurafenib expression: did not modulate
phosphorylation; versus DMSO
  MAP vemurafenib phosphorylation: complete inhibition

## CC(=O)Nc1nc(-c2ccc(NS(=O)(=O)c3cccc4c(N(C)C)cccc34)cc2)cs1 [HA32, N-(4-(4-(5-(dimethylamino)naphthalene-1-sulfonamido)phenyl)thiazol-2-yl)acetamide]
[1]
  cell viability of resistant melanoma cells: inhibit cell viability of resistant melanoma cells

## CC1(COc2ccc(CC3SC(=O)NC3=O)cc2)CCCCC1 (centres unmarked) [ciglitazone, reference compound]
Normal human melanocytes
  cell viability of normal melanocytes: not affected
Normal human fibroblasts
  cell viability of normal fibroblasts: not affected
